Calls of active or inactive are those of the source. The rule behind the calls is not given here.
How the values were obtained:
HepG2 [1] = assay: cells; settings: Homo sapiens, HepG2, 48 h
MGC-803 = assay: Antiproliferative activity against human MGC803 cells after 48 hrs by MTT assay; format: functional, cell-based; settings: MGC-803, 48 h
HeLa = assay: cells; settings: Homo sapiens, 48 h
HepG2 [2] = assay: Cell cycle arrest in human HepG2 cells assessed as increase in accumulation of cells at G0/G1 phase at 4 ug/ml after 48 hrs by propidium iodide staining-based flow cytometric analysis; format: functional
HepG2 [3] = assay: Upregulation of vimentin protein levels in human HepG2 cells at 4 ug/ml after 48 hrs by Western blot analysis; format: functional, cell-based
HepG2 [4] = assay: Downregulation of C-myc protein levels in human HepG2 cells after 48 hrs by Western blot analysis; format: functional, cell-based
H22 [5] = assay: Antitumor activity against mouse H22 cells implanted in mouse assessed as tumor growth inhibition at 50 mg/kg, ip qd administered for 10 consecutive days measured after 24 hrs post last dose relative to control; format: functional; settings: read-out: TGI
HepG2 [6] = assay: Downregulation of beta-Catenin protein levels in human HepG2 cells after 48 hrs by Western blot analysis; format: functional, cell-based
HepG2 [7] = assay: Downregulation of Ki67 protein levels in human HepG2 cells after 48 hrs by Western blot analysis; format: functional, cell-based
HepG2 [8] = assay: Downregulation of cyclin D1 protein levels in human HepG2 cells after 48 hrs by Western blot analysis; format: functional, cell-based
HepG2 [9] = assay: Cell cycle arrest in human HepG2 cells assessed as decrease in accumulation of cells at S phase at 4 ug/ml after 48 hrs by propidium iodide staining-based flow cytometric analysis; format: functional
H22 [10] = assay: Antitumor activity against mouse H22 cells implanted in mouse assessed as tumor growth inhibition at 100 mg/kg, ip or ig qd administered for 10 consecutive days measured after 24 hrs post last dose relative to control; format: functional; settings: read-out: TGI
H22 [11] = assay: Synergistic antitumor activity against mouse H22 cells implanted in mouse assessed as tumor growth inhibition at 50 mg/kg, ip or ig qd administered for 10 consecutive days measured after 24 hrs post last dose in presence of sorafenib relative to control; format: functional; settings: read-out: TGI
HepG2 [12] = assay: Synergistic downregulation of beta-catenin protein levels in human HepG2 cells at 5 ug/ml after 48 hrs in presence of sorafenib by Western blot analysis; format: functional, cell-based
HepG2 [13] = assay: Synergistic upregulation of vementin protein levels in human HepG2 cells at 5 ug/ml after 48 hrs in presence of sorafenib by Western blot analysis; format: functional, cell-based
HepG2 [14] = assay: Synergistic downregulation of C-myc protein levels in human HepG2 cells at 5 ug/ml after 48 hrs in presence of sorafenib by Western blot analysis; format: functional, cell-based
HepG2 [15] = assay: Synergistic downregulation of cyclin D1 protein levels in human HepG2 cells at 5 ug/ml after 48 hrs in presence of sorafenib by Western blot analysis; format: functional, cell-based
H22 [16] = assay: Antitumor activity against mouse H22 cells implanted in mouse assessed as tumor growth inhibition at 50 mg/kg, ip or ig qd administered for 10 consecutive days measured after 24 hrs post last dose relative to control; format: functional; settings: read-out: TGI
HepG2 [17] = assay: Synergistic downregulation of Ki67 protein levels in human HepG2 cells at 5 ug/ml after 48 hrs in presence of sorafenib by Western blot analysis; format: functional, cell-based
HepG2 [18] = assay: Upregulation of vimentin protein levels in human HepG2 cells at 2.5 to 10 ug/ml after 48 hrs by Western blot analysis; format: functional, cell-based

| IC50 (HepG2 [1]) [µM] | IC50 (MGC-803) [µM] | IC50 (HeLa) [µM] | Structure (SMILES) | also measured |
| --- | --- | --- | --- | --- |
| 69.8 | 34.7 | 49.6 | COc1cc(NC(=O)c2cccnc2)c2c(c1O)-c1c(OC)c(OC)cc3c1[C@H](C2)N(C)CC3 | – |
| 53.2 | 47.8 | 46.6 | COc1cc(NC(=O)Nc2ccc(SC)cc2)c2c(c1O)-c1c(OC)c(OC)cc3c1[C@H](C2)N(C)CC3 | – |
| 63.4 | 37.9 | 74.5 | COc1cc(NC(=O)/C=C/c2ccccc2)c2c(c1O)-c1c(OC)c(OC)cc3c1[C@H](C2)N(C)CC3 | – |
| 28.5 | 32.5 | 33.4 | CCC(=O)NC1CCN(c2ccc(NC(=O)Nc3cc(OC)c(O)c4c3C[C@H]3c5c(cc(OC)c(OC)c5-4)CCN3C)cc2C(F)(F)F)CC1 | – |
| 21.5 | 21.9 | 16.6 | COc1cc(NC(=O)c2ccc(Cl)c(C(F)(F)F)c2)c2c(c1O)-c1c(OC)c(OC)cc3c1[C@H](C2)N(C)CC3 | – |
| – | – | – | CNC(=O)c1cc(Oc2ccc(NC(=O)Nc3ccc(Cl)c(C(F)(F)F)c3)cc2)ccn1 [SORAFENIB] | Activity (HepG2 [2]): Active; Activity (HepG2 [3]): Active; Activity (HepG2 [4]): Dose-dependent effect; inhibition in vivo at 50 mg/kg (H22 [5]): 55.8 to 56.5%; Activity (HepG2 [6]): Dose-dependent effect; Activity (HepG2 [7]): Dose-dependent effect; Activity (HepG2 [8]): Dose-dependent effect; Activity (HepG2 [9]): Active |
| 40 | 49.6 | 31.3 | COC1=CC(=O)c2cc3c4c(cc(OC)c(OC)c4c2C1=O)CCN3C | – |
| 28.6 | 32.3 | 33.7 | COc1cc(NC(=O)Nc2ccc(N3CCC(N)CC3)c(C(F)(F)F)c2)c2c(c1O)-c1c(OC)c(OC)cc3c1[C@H](C2)N(C)CC3 | – |
| 28.4 | 30 | 21.7 | COc1cc(NC(=O)Nc2ccc(Cl)c(Cl)c2)c2c(c1O)-c1c(OC)c(OC)cc3c1[C@H](C2)N(C)CC3 | – |
| 18.9 | 23.2 | 22.1 | COc1cc(NC(=O)Nc2ccc(N3CCC(CNC(=O)OC(C)(C)C)CC3)c(C(F)(F)F)c2)c2c(c1O)-c1c(OC)c(OC)cc3c1[C@H](C2)N(C)CC3 | – |
| 20.7 | 20.4 | 32.5 | CCC(=O)NCC1CCN(c2ccc(NC(=O)Nc3cc(OC)c(O)c4c3C[C@H]3c5c(cc(OC)c(OC)c5-4)CCN3C)cc2C(F)(F)F)CC1 | – |
| 75.4 | 56.6 | 62.1 | COc1cc(NC(=O)c2ccccc2O)c2c(c1O)-c1c(OC)c(OC)cc3c1[C@H](C2)N(C)CC3 | – |
| 45.9 | 57.3 | 49 | COc1cc(NC(=O)Nc2ccc(C(F)(F)F)cc2)c2c(c1O)-c1c(OC)c(OC)cc3c1[C@H](C2)N(C)CC3 | – |
| 25.9 | 28.7 | 26.7 | COc1cc(NC(=O)Nc2ccc(N3CCC(NC(=O)OC(C)(C)C)CC3)c(C(F)(F)F)c2)c2c(c1O)-c1c(OC)c(OC)cc3c1[C@H](C2)N(C)CC3 | – |
| 30.2 | 27.2 | 29.6 | COc1cc(NC(=O)c2cc(Cc3n[nH]c(=O)c4ccccc34)ccc2F)c2c(c1O)-c1c(OC)c(OC)cc3c1[C@H](C2)N(C)CC3 | – |
| 36.7 | 35.2 | 36.9 | COc1cc(NC(=O)Nc2ccccc2Cl)c2c(c1O)-c1c(OC)c(OC)cc3c1[C@H](C2)N(C)CC3 | – |
| 7.51 | 11.1 | 6.32 | COc1cc(NC(=O)Nc2ccc(N3CCC(CN)CC3)c(C(F)(F)F)c2)c2c(c1O)-c1c(OC)c(OC)cc3c1[C@H](C2)N(C)CC3 | inhibition in vivo at 100 mg/kg (H22 [10]): 73.8%; inhibition in vivo at 50 mg/kg (H22 [11]): 66.5%; Activity (HepG2 [4]): Dose-dependent effect; Activity (HepG2 [6]): Dose-dependent effect; Activity (HepG2 [12]): Active; Activity (HepG2 [13]): Active; Activity (HepG2 [7]): Dose-dependent effect; Activity (HepG2 [14]): Active; Activity (HepG2 [8]): Dose-dependent effect; Activity (HepG2 [15]): Active; inhibition in vivo at 50 mg/kg (H22 [16]): 27.2%; Activity (HepG2 [17]): Active; Activity (HepG2 [18]): Active |

| Structure (SMILES) | IC50 (HepG2 [1]) [µM] | IC50 (MGC-803) [µM] | IC50 (HeLa) [µM] | also measured |
| --- | --- | --- | --- | --- |
| COc1cc(NC(=O)Nc2ccc(C)cc2)c2c(c1OC(=O)Nc1ccc(C)cc1)-c1c(OC)c(OC)cc3c1[C@H](C2)N(C)CC3 | 16.1 | 25.6 | 19.1 | – |
| COc1cc(NC(=O)Nc2ccc(F)cc2)c2c(c1OC(=O)Nc1ccc(F)cc1)-c1c(OC)c(OC)cc3c1[C@H](C2)N(C)CC3 | 26.7 | 25.1 | 26.8 | – |
| COc1cc2c3c(c1O)-c1c(ccc(O)c1OC)C[C@@H]3N(C)CC2 | 154 | 124 | 109 | – |
| COc1cc(NC(=O)Nc2ccc(C(F)(F)F)cc2)c2c(c1OC(=O)Nc1ccc(C(F)(F)F)cc1)-c1c(OC)c(OC)cc3c1[C@H](C2)N(C)CC3 | 44.1 | 39.3 | 47.7 | – |
| COc1ccc2c(c1O)-c1c(O)c(OC)cc3c1[C@H](C2)N(C)CC3 [CORYTUBERINE] | > 200 | > 200 | > 200 | – |
| COc1ccc2c(c1O)-c1c(OC)c(OC)cc3c1[C@H](C2)N(C)CC3 [ISOCORYDINE] | > 200 | > 200 | > 200 | – |
| COc1cc(N)c2c(c1O)-c1c(OC)c(OC)cc3c1[C@H](C2)N(C)CC3 | 51.1 | 62.1 | 44.1 | – |
| COc1cc(NC(=O)Nc2ccccc2Cl)c2c(c1OC(=O)Nc1ccccc1Cl)-c1c(OC)c(OC)cc3c1[C@H](C2)N(C)CC3 | 17.2 | 26.9 | 27.1 | – |
| COc1cc(NC(=O)Nc2ccccc2C)c2c(c1OC(=O)Nc1ccccc1C)-c1c(OC)c(OC)cc3c1[C@H](C2)N(C)CC3 | 31.4 | 22.8 | 43.9 | – |
| COc1cc2c3c(c1O)-c1c(ccc(OC)c1OC)C[C@@H]3N(C)CC2 [CORYDINE] | > 200 | > 200 | > 200 | – |

Source: ChEMBL document CHEMBL4177667, “Design, synthesis, and anticancer properties of isocorydine derivatives” (Bioorg Med Chem, 2017)
